From patent US20230092005A1, “COMPOSITIONS AND METHODS FOR TREATING CANCER AND TUMOR” (OBLATO, INC., priority 2020, published 2023)
Values joined by “and” are separate entries in the source; they are usually repeats but may differ in a detail not shown here. Identical values can stand only once.

What was measured:
[1] = test system: human A549 lung cancer xenografts; experiment: Anti-cancer efficacy in nude mice carrying human A549 lung cancer xenografts (tumor volume, tumor weight, growth inhibition rate); format: in vivo, BALB/c Nude mouse; details: for Tumor weights (mean): tumors weighed at day 29; for Tumor growth inhibition rate (IR): IR=(1-T/C)x100 from mean tumor weights, day 29
Experimental: The anti-cancer efficacy of OKN-007 was assessed after oral administration in nude mice carrying human A549 lung cancer xenografts implanted subcutaneously in the flank. Human lung cancer cell line, A549 was used. […] The frozen cells were thawed in a water bath. Cells were placed in a tube containing the medium and centrifuged (1,000 rpm, 5 minutes) to discard the supernatant. After re-suspending with the culture medium, cells were placed in a cell culture flask and incubated in a 5% CO2 incubator at 37° C. Cells were sub-cultured at a ratio of 1:5 when grown with confluency of 70-80% in the culture container. Cells cultured on the day of cell line transplantation were centrifuged (1,000 rpm, 5 minutes) to discard the supernatant and to make cell suspension with D-PB S. Then, the cell suspension was mixed with Matrigel at a ratio of 1:1 (5×10^7 cells/mL). BALB/c Nude mouse, [NT]-Foxnlnu/CrlOri, SPF was used. Sex, number, age, and body weight range of animals at receipt: The mice (65 mice) were male, 5 weeks old, and had about 14.5-19.6 g weight at the receipt. Cell transplantation: After the quarantine-acclimation period, the body weight measurement and cell transplantation in healthy animals were performed. […] Prepared cell (1×10^7 cells/0.2 mL) suspension was injected subcutaneously into the right flank with disposable syringes. […] Group assignment: After transplanting cells, each tumor size was monitored for 65 animals. When tumor volume reached within 87-112 mm^3, 50 animals were assigned to the respective groups with an average tumor volume of about 99 mm^3. Based on the tumor volume, animals were selected and randomly distributed into 5 groups (10 animals/group). Dosing Route: Oral administration. The route of administration was oral because the clinical application of the test substance is oral. Method and frequency of administration: For negative control and test substance, oral administration was performed once a day for 4 weeks for a total of 28 times using a disposable syringe. For positive control, intraperitoneal administration was performed once a week for 4 weeks for a total of 4 times using a disposable syringe. Dosing Route: The dose levels of the test substance were selected at 150, 300, and 600 mg/kg. The dose level of the positive substance was selected at 2 mg/kg. The dose volume was selected at 10 mL/kg for all groups, and the individual dose was calculated based on the bodyweight of animals just prior to dosing. Measurement of tumor volume: The largest diameter (a) and the smallest diameter (b) of each tumor were measured using calipers twice a week during the observation period. The tumor volume (TV) was calculated twice a week according to the following formula: TV (mm^3)=(a (mm)×b^2 (mm^2))/2. The volume of a tumor before administration to each animal was set to the value measured at the time of group assignment. Tumor removal and measurement of body weight: After the observation period, animals were anesthetized by inhalation of isoflurane. After the tumor was extracted, the weight of the removed tumor was recorded. The tumor growth inhibition rate (IR) was calculated using the following formula: IR (%)=(1-T/C)×100, where T is a mean tumor weight in the test substance group, and positive substance group, and C is a mean tumor weight in the negative control group.

[2] = test system: human A549 lung cancer xenografts; experiment: TUNEL staining of extracted A549 xenograft tumors (apoptosis counting and grading); format: in vivo, BALB/c Nude mouse; details: for Apoptosis grade + : number of animals / Apoptosis grade ++ (moderate): number of animals / Apoptosis grade +++ (marked): number of animals / Apoptosis grade ++++ (severe): number of animals / Apoptosis grade ± (minimal): number of animals: N=10; for Apoptosis counting No. (group mean ± S.D.): TUNEL positive cells per 1 mm^2
From the text: Histopathological test: The extracted tumors were fixed in 10% neutral buffered formalin solution (10% neutral buffered formalin). After sectioning the tumors to a certain thickness (about 3 mm), those were subjected to the general preparation procedure, embedded in paraffin, cut into 4 to 5 μm size, and tissue sections were stained with Hematoxylin and Eosin (H&E) and TUNEL. IHC (Immunohistochemistry) slides, cut into 4 to 5 μm size, were produced and sent to the sponsor (Negative Control Group (G1), Test substance 2 (G3, Animal ID Nos.: 1301, 1302, 1303, 1307, 1310), Test substance 3 (G4, Animal ID Nos.: 1401, 1402, 1404, 1408, 1409)). Determination of TUNEL staining results: After histological examination of the entire cross-section of the tumor for grading (±, +, ++, +++, ++++) of apoptosis, the nucleated brown stained cells were read as […] was counted. The apoptosis of the tumor was determined by the number of positive cells per […] (1 mm^2). The apoptosis of the tumor was determined by calculating the average number of positive cells and graded into the corresponding severity. The number of positive cells in which apoptosis occurred was determined by counting the number of positive cells per unit area (1 mm^2). Histopathological test (Table 7, FIGS. 7-11): The extracted fixed tumor was cut to a certain thickness (about 3 mm), then subjected to general tissue treatment, paraffin-embedded to produce blocks, and tissue sections of 4 to 5 μm in size were prepared. Then, Hematoxylin & Eosin (H&E) staining and TUNEL staining were performed.

With `CC(C)(C)/[N+]([O-])=C/c1ccc(S(=O)(=O)O)cc1S(=O)(=O)O` [OKN-007, Disodium 4-[(Z)-[tert-butyl(oxido)azaniumylidene]methyl]benzene-1,3-disulfonate] the “Tumor weights (mean)” value ([1]; G2, 150 mg/kg P.O. once a day for 4 weeks) was 0.47 g, the “Tumor volume (mean)” value ([1]; G2, 150 mg/kg P.O. once a day, day 1 (before administration)) was 99 mm^3 and the “Tumor volume (mean)” value ([1]; G2, 150 mg/kg P.O. once a day, day 5 after administration) was 152 mm^3. The “Tumor volume (mean)” value ([1]; G2, 150 mg/kg P.O. once a day, day 8 after administration) was 200 mm^3, the “Tumor volume (mean)” value ([1]; G2, 150 mg/kg P.O. once a day, day 12 after administration) was 240 mm^3 and the “Tumor volume (mean)” value ([1]; G2, 150 mg/kg P.O. once a day, day 15 after administration) was 243 mm^3. For the same compound, the “Tumor volume (mean)” value ([1]; G2, 150 mg/kg P.O. once a day, day 19 after administration) was 306 mm^3, the “Tumor volume (mean)” value ([1]; G2, 150 mg/kg P.O. once a day, day 22 after administration) was 376 mm^3 and the “Tumor volume (mean)” value ([1]; G2, 150 mg/kg P.O. once a day, day 26 after administration) was 466 mm^3. For the same compound, the “Tumor volume (mean)” value ([1]; G2, 150 mg/kg P.O. once a day, day 29 after administration) was 603 mm^3, the “Tumor growth inhibition rate (IR)” value ([1]; G2, 150 mg/kg P.O.) was 48.9% and the “Tumor weights (mean)” value ([1]; G3, 300 mg/kg P.O. once a day for 4 weeks) was 0.43 g. The “Tumor volume (mean)” value ([1]; G3, 300 mg/kg P.O. once a day, day 1 (before administration)) was 99 mm^3, the “Tumor volume (mean)” value ([1]; G3, 300 mg/kg P.O. once a day, day 5 after administration) was 146 mm^3 and the “Tumor volume (mean)” value ([1]; G3, 300 mg/kg P.O. once a day, day 8 after administration) was 172 mm^3. For the same compound, the “Tumor volume (mean)” value ([1]; G3, 300 mg/kg P.O. once a day, day 12 after administration) was 182 mm^3, the “Tumor volume (mean)” value ([1]; G3, 300 mg/kg P.O. once a day, day 15 after administration) was 212 mm^3 and the “Tumor volume (mean)” value ([1]; G3, 300 mg/kg P.O. once a day, day 19 after administration) was 254 mm^3. The “Tumor volume (mean)” value ([1]; G3, 300 mg/kg P.O. once a day, day 22 after administration) was 310 mm^3, the “Tumor volume (mean)” value ([1]; G3, 300 mg/kg P.O. once a day, day 26 after administration) was 390 mm^3 and the “Tumor volume (mean)” value ([1]; G3, 300 mg/kg P.O. once a day, day 29 after administration) was 460 mm^3. The “Tumor growth inhibition rate (IR)” value ([1]; G3, 300 mg/kg P.O.) was 53.3%, the “Tumor growth inhibition rate (IR)” value ([1]; G3, 300 mg/kg P.O., listed as test substance) was 53.5% and the “Tumor weights (mean)” value ([1]; G4, 600 mg/kg P.O. once a day for 4 weeks) was 0.38 g. The “Tumor volume (mean)” value ([1]; G4, 600 mg/kg P.O. once a day, day 1 (before administration)) was 99 mm^3, the “Tumor volume (mean)” value ([1]; G4, 600 mg/kg P.O. once a day, day 5 after administration) was 149 mm^3 and the “Tumor volume (mean)” value ([1]; G4, 600 mg/kg P.O. once a day, day 8 after administration) was 176 mm^3. The “Tumor volume (mean)” value ([1]; G4, 600 mg/kg P.O. once a day, day 12 after administration) was 179 mm^3, the “Tumor volume (mean)” value ([1]; G4, 600 mg/kg P.O. once a day, day 15 after administration) was 209 mm^3 and the “Tumor volume (mean)” value ([1]; G4, 600 mg/kg P.O. once a day, day 19 after administration) was 249 mm^3. For the same compound, the “Tumor volume (mean)” value ([1]; G4, 600 mg/kg P.O. once a day, day 22 after administration) was 288 mm^3, the “Tumor volume (mean)” value ([1]; G4, 600 mg/kg P.O. once a day, day 26 after administration) was 331 mm^3 and the “Tumor volume (mean)” value ([1]; G4, 600 mg/kg P.O. once a day, day 29 after administration) was 407 mm^3. The “Tumor growth inhibition rate (IR)” value ([1]; G4, 600 mg/kg P.O.) was 58.7%, the “Apoptosis grade + : number of animals” value ([2]; G2, 150 mg/kg P.O.) was 1 and the “Apoptosis grade ++ (moderate): number of animals” value (“Apoptosis grade ++ (moderate)” for short) ([2]; G2, 150 mg/kg P.O.) was 0. For the same compound, the “Apoptosis grade +++ (marked): number of animals” value (“Apoptosis grade +++ (marked)” below) ([2]; G2, 150 mg/kg P.O.) was 0, the “Apoptosis grade ++++ (severe): number of animals” value (from here on “Apoptosis grade ++++ (severe)”) ([2]; G2, 150 mg/kg P.O.) was 0 and the “Apoptosis grade ± (minimal): number of animals” value (“Apoptosis grade ± (minimal)” below) ([2]; G2, 150 mg/kg P.O.) was 9. The “Apoptosis counting No. (group mean ± S.D.)” value ([2]; G2, 150 mg/kg P.O.) was 79.6±29.8 No./mm^2 and 79.6 ± 20.8 No./mm^2, the “Apoptosis grade + : number of animals” value ([2]; G3, 300 mg/kg P.O.) was 2 and the “Apoptosis grade ++ (moderate)” value ([2]; G3, 300 mg/kg P.O.) was 0. The “Apoptosis grade +++ (marked)” value ([2]; G3, 300 mg/kg P.O.) was 0, the “Apoptosis grade ++++ (severe)” value ([2]; G3, 300 mg/kg P.O.) was 0 and the “Apoptosis grade ± (minimal)” value ([2]; G3, 300 mg/kg P.O.) was 8. For the same compound, the “Apoptosis counting No. (group mean ± S.D.)” value ([2]; G3, 300 mg/kg P.O.) was 91.5±32.2 No./mm^2, the “Apoptosis grade + : number of animals” value ([2]; G4, 600 mg/kg P.O.) was 5 and the “Apoptosis grade ++ (moderate)” value ([2]; G4, 600 mg/kg P.O.) was 2. The “Apoptosis grade +++ (marked)” value ([2]; G4, 600 mg/kg P.O.) was 0, the “Apoptosis grade ++++ (severe)” value ([2]; G4, 600 mg/kg P.O.) was 0 and the “Apoptosis grade ± (minimal)” value ([2]; G4, 600 mg/kg P.O.) was 3. For the same compound, the “Apoptosis counting No. (group mean ± S.D.)” value ([2]; G4, 600 mg/kg P.O.) was 149.9±59.5 No./mm^2.
